{"source": "patent US9393271B2", "about": "“GHRH agonists for islet cell transplantation and function and the treatment of diabetes” (UNIVERSITY OF MIAMI, priority 2012, dated 2016)", "key": {"[1]": {"biological_target": "T1, GHRH receptor (human pituitary membrane homogenates) (Homo sapiens, UniProt Q02643)", "T1 sequence (Q02643 23-423)": "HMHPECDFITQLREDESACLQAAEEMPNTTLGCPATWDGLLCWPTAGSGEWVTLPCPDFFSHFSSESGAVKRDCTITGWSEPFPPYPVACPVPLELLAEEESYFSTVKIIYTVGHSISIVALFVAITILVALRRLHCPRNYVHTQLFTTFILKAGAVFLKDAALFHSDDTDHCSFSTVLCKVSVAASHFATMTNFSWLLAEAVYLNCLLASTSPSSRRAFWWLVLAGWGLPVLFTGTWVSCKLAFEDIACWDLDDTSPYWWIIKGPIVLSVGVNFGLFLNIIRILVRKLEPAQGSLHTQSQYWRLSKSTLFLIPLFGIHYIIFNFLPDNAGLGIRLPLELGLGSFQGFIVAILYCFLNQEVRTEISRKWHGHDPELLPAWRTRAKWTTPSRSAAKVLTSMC", "assay": "GHRH receptor binding, ligand competition with 125I-labeled [His1,Nle27]hGHRH(1-32)NH2 (Table 6)", "conditions": "for Relative affinitiy (Binding potency) vs GHRH: GHRH(1-29) = 1; for Relative affinitiy (Binding potency) vs JI-38: JI-38 = 1"}, "[2]": {"biological_target": "T1, GHRH receptor (human pituitary membrane homogenates)", "assay": "GHRH receptor binding, ligand competition with 125I-labeled JV-1-42 (Table 5)", "text": "Normal human pituitaries were purchased from the National Hormone and Peptide Program (A. F. Parlow, Los Angeles, County Harbor-UCLA Medical Center, Torrance, Calif.)."}, "[3]": {"biological_target": "T1, GHRH receptor (human pituitary membrane homogenates)", "assay": "GHRH receptor binding, ligand competition with 125I-labeled JV-1-42 (Table 7)", "design": "Normal human pituitaries were purchased from the National Hormone and Peptide Program; tissue National Hormone and Peptide Program (A. F. Parlow, Harbor-UCLA Medical Center, Torrance, Calif.); host or cells: normal human pituitary, membrane fraction / homogenate", "conditions": "JI-38 = 1"}}, "note": "Non-standard residues stand in square brackets, D forms with d. Residues, ends and D or L forms follow the SMILES beside them. *: point of attachment. Desaminotyrosyl = O=C(CCc1ccc(O)cc1)*; hArg = N=C(N)NCCCC[C@H](N)C(=O)O; Agmatine = N=C(N)NCCCCN*; Nle = CCCC[C@H](N)C(=O)O; Orn = NCCC[C@H](N)C(=O)O; Abu = CC[C@H](N)C(=O)O; Aoc = NCCCCCCCC(=O)O; GABA = NCCCC(=O)O", "data": [{"molecule": "CCCC[C@H](NC(=O)[C@@H](NC(=O)[C@H](CC(=O)O)NC(=O)[C@H](CCC(N)=O)NC(=O)[C@H](CC(C)C)NC(=O)[C@H](CC(C)C)NC(=O)[C@H](CCCN)NC(=O)[C@H](CCCNC(=N)N)NC(=O)[C@H](C)NC(=O)[C@H](CO)NC(=O)[C@H](CC(C)C)NC(=O)[C@H](CCC(N)=O)NC(=O)[C@H](CC)NC(=O)[C@H](CC(C)C)NC(=O)[C@@H](NC(=O)[C@H](CCCN)NC(=O)[C@H](CCCNC(=N)N)NC(=O)[C@H](Cc1ccc(O)cc1)NC(=O)[C@H](CO)NC(=O)[C@@H](NC(=O)[C@@H](NC(=O)[C@H](Cc1ccccc1)NC(=O)[C@@H](NC(=O)[C@H](C)NC(=O)[C@H](CC(=O)O)NC(=O)[C@H](C)NC(=O)CCc1ccc(O)cc1)[C@@H](C)CC)[C@@H](C)O)[C@@H](C)O)C(C)C)[C@@H](C)CC)C(=O)N[C@@H](CC(=O)O)C(=O)NCCCCNC(=N)N", "note": "[JI-36, reference compound] (Desaminotyrosyl-ADAIFTTSYR[Orn]VL[Abu]QLSAR[Orn]LLQDI[Nle]D-Agmatine; N-terminus and C-terminus assumed)", "values": [{"measurement": "Relative affinitiy (Binding potency) vs GHRH", "setting": "[1]", "value": 3.25}]}, {"molecule": "CCCC[C@H](NC(=O)[C@@H](NC(=O)[C@H](CC(=O)O)NC(=O)[C@H](CCC(N)=O)NC(=O)[C@H](CC(C)C)NC(=O)[C@H](CC(C)C)NC(=O)[C@H](CCCN)NC(=O)[C@H](CCCNC(=N)N)NC(=O)[C@H](C)NC(=O)[C@H](CO)NC(=O)[C@H](CC(C)C)NC(=O)[C@H](CCC(N)=O)NC(=O)[C@H](CC)NC(=O)[C@H](CC(C)C)NC(=O)[C@@H](NC(=O)[C@H](CCCN)NC(=O)[C@H](CCCNC(=N)N)NC(=O)[C@H](Cc1ccc(O)cc1)NC(=O)[C@H](CO)NC(=O)[C@H](CCC(N)=O)NC(=O)[C@@H](NC(=O)[C@H](Cc1ccccc1)NC(=O)[C@@H](NC(=O)[C@H](C)NC(=O)[C@H](CC(=O)O)NC(=O)[C@@H](C)NC(=O)CCc1ccc(O)cc1)[C@@H](C)CC)[C@@H](C)O)C(C)C)[C@@H](C)CC)C(=O)N[C@@H](CC(=O)O)C(=O)N[C@@H](CCCNC(=N)N)C(=O)NCCCCCCCC(N)=O", "note": "[Peptide P-21304, [Dat^1, D-Ala^2, Gln^8, Orn^12, Abu^15, Orn^21, Nle^27, Asp^28, Amc^30]hGHRH(1-30)NH2] (Desaminotyrosyl-[dA]DAIFTQSYR[Orn]VL[Abu]QLSAR[Orn]LLQDI[Nle]DR[Aoc]-NH2)", "values": [{"measurement": "Relative affinitiy (Binding potency) vs GHRH", "setting": "[1]", "value": 74.0}, {"measurement": "Relative affinitiy (Binding potency) vs JI-38", "setting": "[1]", "value": 24.4}]}, {"molecule": "CCCC[C@H](NC(=O)[C@@H](NC(=O)[C@H](CC(=O)O)NC(=O)[C@H](CCC(N)=O)NC(=O)[C@H](CC(C)C)NC(=O)[C@H](CC(C)C)NC(=O)[C@H](CCCN)NC(=O)[C@H](CCCNC(=N)N)NC(=O)[C@H](C)NC(=O)[C@H](CO)NC(=O)[C@H](CC(C)C)NC(=O)[C@H](CCC(N)=O)NC(=O)[C@H](CC)NC(=O)[C@H](CC(C)C)NC(=O)[C@@H](NC(=O)[C@H](CCCN)NC(=O)[C@H](CCCNC(=N)N)NC(=O)[C@H](Cc1ccc(O)cc1)NC(=O)[C@H](CO)NC(=O)[C@H](CC(N)=O)NC(=O)[C@@H](NC(=O)[C@H](Cc1ccccc1)NC(=O)[C@@H](NC(=O)[C@H](C)NC(=O)[C@H](CC(=O)O)NC(=O)[C@@H](C)NC(=O)CCc1ccc(O)cc1)[C@@H](C)CC)[C@@H](C)O)C(C)C)[C@@H](C)CC)C(=O)N[C@@H](CC(=O)O)C(=O)N[C@@H](CCCNC(=N)N)C(=O)N[C@@H](CCCCNC(=N)N)C(N)=O", "note": "[Peptide P-23252, [Dat^1-D-Ala^2, Orn^12, Abu^15, Orn^21, Nle^27, Asp^28, Har^30]hGHRH(1-30)NH2] (Desaminotyrosyl-[dA]DAIFTNSYR[Orn]VL[Abu]QLSAR[Orn]LLQDI[Nle]DR[hArg]-NH2)", "values": [{"measurement": "Relative affinitiy (Binding potency) vs GHRH", "setting": "[1]", "value": 42.3}, {"measurement": "Relative affinitiy (Binding potency) vs JI-38", "setting": "[1]", "value": 13.9}]}, {"molecule": "CCCC[C@H](NC(=O)[C@@H](NC(=O)[C@H](CC(=O)O)NC(=O)[C@H](CCC(N)=O)NC(=O)[C@H](CC(C)C)NC(=O)[C@H](CC(C)C)NC(=O)[C@H](CCCN)NC(=O)[C@H](CCCNC(=N)N)NC(=O)[C@H](C)NC(=O)[C@H](CO)NC(=O)[C@H](CC(C)C)NC(=O)[C@H](CCC(N)=O)NC(=O)[C@H](CC)NC(=O)[C@H](CC(C)C)NC(=O)[C@@H](NC(=O)[C@H](CCCN)NC(=O)[C@H](CCCNC(=N)N)NC(=O)[C@H](Cc1ccc(O)cc1)NC(=O)[C@H](CO)NC(=O)[C@@H](NC(=O)[C@@H](NC(=O)[C@H](Cc1ccccc1)NC(=O)[C@@H](NC(=O)[C@H](C)NC(=O)[C@H](CC(=O)O)NC(=O)[C@@H](C)NC(=O)CCc1ccc(O)cc1)[C@@H](C)CC)[C@@H](C)O)[C@@H](C)O)C(C)C)[C@@H](C)CC)C(=O)N[C@@H](CC(=O)O)C(=O)N[C@@H](CCCNC(=N)N)C(=O)N[C@@H](CCCCNC(=N)N)C(N)=O", "note": "[Peptide P-23254, [Dat^1, D-Ala^2, Thr^8, Orn^12, Abu^15, Orn^21, Nle^27, Asp^28, Har^30]hGHRH(1-30)NH2] (Desaminotyrosyl-[dA]DAIFTTSYR[Orn]VL[Abu]QLSAR[Orn]LLQDI[Nle]DR[hArg]-NH2)", "values": [{"measurement": "Relative affinitiy (Binding potency) vs GHRH", "setting": "[1]", "value": 84.5}, {"measurement": "Relative affinitiy (Binding potency) vs JI-38", "setting": "[1]", "value": 27.8}]}, {"molecule": "CCCC[C@H](NC(=O)[C@@H](NC(=O)[C@H](CC(=O)O)NC(=O)[C@H](CCC(N)=O)NC(=O)[C@H](CC(C)C)NC(=O)[C@H](CC(C)C)NC(=O)[C@H](CCCN)NC(=O)[C@H](CCCNC(=N)N)NC(=O)[C@H](C)NC(=O)[C@H](CO)NC(=O)[C@H](CC(C)C)NC(=O)[C@H](CCC(N)=O)NC(=O)[C@H](CC)NC(=O)[C@H](CC(C)C)NC(=O)[C@@H](NC(=O)[C@H](CCCN)NC(=O)[C@H](CCCNC(=N)N)NC(=O)[C@H](Cc1ccc(O)cc1)NC(=O)[C@H](CO)NC(=O)[C@H](C)NC(=O)[C@@H](NC(=O)[C@H](Cc1ccccc1)NC(=O)[C@@H](NC(=O)[C@H](C)NC(=O)[C@H](CC(=O)O)NC(=O)[C@@H](C)NC(=O)CCc1ccc(O)cc1)[C@@H](C)CC)[C@@H](C)O)C(C)C)[C@@H](C)CC)C(=O)N[C@@H](CC(=O)O)C(=O)N[C@@H](CCCNC(=N)N)C(=O)N[C@@H](CCCCNC(=N)N)C(N)=O", "note": "[Peptide P-23256, [Dat^1, D-Ala^2, Ala^8, Orn^12, Abu^15, Orn^21, Nle^27, Asp^28, Har^30]hGHRH(1-30)NH2] (Desaminotyrosyl-[dA]DAIFTASYR[Orn]VL[Abu]QLSAR[Orn]LLQDI[Nle]DR[hArg]-NH2)", "values": [{"measurement": "Relative affinitiy (Binding potency) vs GHRH", "setting": "[1]", "value": 148.0}, {"measurement": "Relative affinitiy (Binding potency) vs JI-38", "setting": "[1]", "value": 48.7}]}, {"molecule": "CCCC[C@H](NC(=O)[C@@H](NC(=O)[C@H](CC(=O)O)NC(=O)[C@H](CCC(N)=O)NC(=O)[C@H](CC(C)C)NC(=O)[C@H](CC(C)C)NC(=O)[C@H](CCCN)NC(=O)[C@H](CCCNC(=N)N)NC(=O)[C@H](C)NC(=O)[C@H](CO)NC(=O)[C@H](CC(C)C)NC(=O)[C@H](CCC(N)=O)NC(=O)[C@H](CC)NC(=O)[C@H](CC(C)C)NC(=O)[C@@H](NC(=O)[C@H](CCCN)NC(=O)[C@H](CCCNC(=N)N)NC(=O)[C@H](Cc1ccc(O)cc1)NC(=O)[C@H](CO)NC(=O)[C@H](CC(N)=O)NC(=O)[C@@H](NC(=O)[C@H](Cc1ccccc1)NC(=O)[C@@H](NC(=O)[C@H](C)NC(=O)[C@H](CC(=O)O)NC(=O)[C@@H](C)NC(=O)CCc1ccc(O)cc1)[C@@H](C)CC)[C@@H](C)O)C(C)C)[C@@H](C)CC)C(=O)N[C@@H](CO)C(=O)N[C@@H](CCCNC(=N)N)C(=O)N[C@@H](CCC(N)=O)C(=O)NCCCC(N)=O", "note": "[Peptide P-29702, [Dat^1, D-Ala^2, Orn^12, Abu^15, Orn^21, Nle^27, Gln-Gab^30]hGHRH(1-30)NH2] (Desaminotyrosyl-[dA]DAIFTNSYR[Orn]VL[Abu]QLSAR[Orn]LLQDI[Nle]SRQ[GABA]-NH2)", "values": [{"measurement": "Relative affinitiy (Binding potency) vs GHRH", "setting": "[2]; GHRH(1-29) = 1", "value": 81.2}, {"measurement": "Relative affinitiy (Binding potency) vs JI-38", "setting": "[2]; JI-38 = 1", "value": 34.2}, {"measurement": "Relative affinitiy (Binding potency) vs JI-38", "setting": "[3]", "value": 5.06}]}]}
